Measured values taken from US20130059783A1, “COMPOSITIONS AND METHODS FOR EXPANDING BFU-E CELLS” (priority 2010, published 2013).

Tests used:
[1] = tested on: Lin-Sca-1-c-kit+ bone marrow progenitor population; experiment: SFELE culture of Lin neg, c-kit pos, Sca-1 neg bone marrow cells; assay type: cell-based, mouse; settings: for Enhancement of proliferation by DMOG above the effect of Dex: bone marrow cells, 333 μM DMOG
Text: FIGS. 5A-5C. […] Total cell number was counted daily and normalized to the number of cells added to the culture. (n=4). Error bars show one standard deviation.
In the bone marrow BFU-E cells are found in the Lin^neg, c-kit^pos, Sca-1^neg fraction; this cell population contains mostly a mix of lineage restricted progenitor cells of which a minority are BFU-Es (Pronk et al., 2007).

[2] = tested on: human peripheral blood erythroid progenitors; experiment: Erythroblast formation from human mobilized peripheral blood CD34+ cells; assay type: cell-based; settings: 100 μM DMOG with 1 nM Dex, human CD34+ derived progenitors
Procedure: FIG. 6. […] Human mobilized CD34+ cells were first thawed and cultured in serum free medium supplemented with StemSpan® CC100 cytokine mix containing rhSCF, rhFlt-3L, rhIL-3 and rhIL-6 for 5 days. […] Total cell number was counted every other day until cell numbers dropped at day 5+19. More than 95% of cells at the end of the culture have erythroblast morphology (data not shown). […] Error bars show one standard deviation.
An experiment was performed on human hematopoietic progenitor cells from mobilized peripheral blood CD34+ cells that were first cultured 5 days in serum-free medium containing rhSCF, rhFlt-3L, rhIL-3 and rhIL-6. […] Similarly to the murine cultures >95% of cells at the end of the culture are erythroblasts (data not shown).

CFU-E cells = experiment: SFELE progenitor growth assay of sorted CFU-E cells; assay type: cell-based, mouse; settings: CD71 and CD24a 20% high cells, 100 nM Dex and/or 333 μM DMOG
Procedure: (§1) FIGS. 1A-1F. […] Error bars show one standard deviation. […] Error bars show one standard deviation. […] Shown is the fraction of c-kit+ cells after 72 hours. […] Cell numbers in each clone were estimated under the microscope on Day 8.
(§2) FIGS. 3A-3B. […] The experimental protocol was similar to that used in FIGS. 1A and B except that the CFU-E and BFU-E cells were purer (CD71 and CD24a^20% high and CD71 and CD24a^10% low, respectively). […] (A) Proliferation of sorted CFU-E cells. […] Error bars show one standard deviation. (B) Proliferation of sorted BFU-E cells. […] Error bars show one standard deviation.
(§3) We developed a modified version of the serum free erythroid liquid expansion culture (SFELE) medium described by Dolzning et al. (Dolznig et al., 2006).

BFU-E cells [3] = experiment: CFU-E and BFU-E colony forming assays of BFU-E cells cultured in SFELE medium; assay type: cell-based, mouse; settings: for Total colony numbers from 1,000 "BFU-E" cells: CFU-E 1 cluster / Total colony numbers from 1,000 "BFU-E" cells: large BFU-E >20 clusters / Total colony numbers from 1,000 "BFU-E" cells: small BFU-E 5-20 clusters: CD24 and CD71 10% low BFU-E cells, SFELE, 100 nM Dex and/or 333 μM DMOG
Procedure: Dexamethasone prevents BFU-E cell exhaustion, which allows more CFU-E cells to be formed. […] (A) The total number of cells formed from 1000 BFU-E cells at different time points. […] Standard deviation between four separate biological experiments is shown in parenthesis (n/d=not determined).
At daily intervals colony assays were performed (Table 2). As in the experiment in FIG. 3, for the first three days the total number of cells increased at the same rate in all cultures.
(§4) Colonies were scored after 3 days. […] The number of hemoglobinized early BFU-E and late BFU-E colonies was determined after 8-9 days following staining with 2,7-Diaminofluorene (Sigma Chemical, St. Louis, Mo.).

BFU-E cells [4] = experiment: Colony forming assays of sorted BFU-E fractions (Table S2); assay type: cell-based, mouse; settings: CD71/CD24a 10% low cells, 100 nM Dex and/or 333 μM DMOG
Text: Separation of BFU-E and CFU-E cells by expression of CD71, CD24a or both CD71 and CD24a. C-kit positive BFU-E and CFU-E cells were sorted from FLEP cells based on expression of CD71, CD24a or both CD71 and CD24a. In all experiments the BFU-E fraction was the subset of c-kit^positive FLEP cells with the 10% lowest expression of CD71 and/or CD24a, while the CFU-E fraction was the subset with 20% highest expression of CD71 and/or CD24a. Sorted BFU-E and CFU-E populations were subjected to colony forming assays under two different conditions. […] The number of CFU-E colonies (±standard deviation) is shown. The sorted “BFU-E” populations mostly formed small CFU-E clusters rather than single CFU-E colonies in these assays. These CFU-E clusters are formed by precursors to CFU-Es and were scored separately as multi-CFU-Es. The number of “multi-CFU-Es” is not shown since these cells likely represent the same cells as those forming small BFU-E colonies.
The potential of the sorted cells to form large BFU-E, small BFU-E, CFU-G/M/Mk, and CFU-GEMM colonies (±standard deviation) was determined by a second assay in methyl cellulose containing 10U Epo, 20 nM IL-3, 20 nM IL-6 and 50 nM SCF per mL, and was scored at day 8-9. […] To determine the effect of DMOG, colony assays of sorted BFU-E (CD71 and CD24a^10% low) cells were also performed in the presence of 333 μM DMOG. In agreement with the finding that DMOG enhances BFU-E self-renewal BFU-E colonies were larger with a more immature appearance in the presence of DMOG and Dex. Therefore, in the presence of DMOG and Dex most BFU-E colonies were scored as “large BFU-Es.”
No GEMM colonies were formed (Table S2).
as §4

BFU-E cells [5] = experiment: Serum free erythroid liquid expansion (SFELE) progenitor growth assay of sorted BFU-E cells; assay type: cell-based, mouse
Procedure: as §1, §2
FIG. 4. […] Cells were counted from day 4 until the day cell counts dropped.
(A) The total number of cells formed from 1000 BFU-E cells at different time points. […] Standard deviation between four separate biological experiments is shown in parenthesis (n/d=not determined).
as §3

HIF prolyl hydroxylase = settings: cited from earlier work
FIH = FIH (Homo sapiens, UniProt Q9NWT6); settings: cited from earlier work
Chain of FIH (Q9NWT6 whole entry): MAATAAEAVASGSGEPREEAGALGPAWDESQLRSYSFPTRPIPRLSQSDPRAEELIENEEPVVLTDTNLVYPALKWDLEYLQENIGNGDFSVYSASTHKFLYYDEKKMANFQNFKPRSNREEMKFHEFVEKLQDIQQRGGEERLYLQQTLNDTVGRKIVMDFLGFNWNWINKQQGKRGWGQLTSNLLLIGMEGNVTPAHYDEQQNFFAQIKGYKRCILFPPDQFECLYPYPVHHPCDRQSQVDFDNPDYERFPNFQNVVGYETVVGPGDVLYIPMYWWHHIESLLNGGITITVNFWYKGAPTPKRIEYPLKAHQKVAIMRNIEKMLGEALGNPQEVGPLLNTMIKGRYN

[6] = 333 μM DMOG and/or 100 nM Dex versus no additions
[7] = Day 3 of culture, 100 nM Dex or 333 μM DMOG alone

SMILES: COC(=O)CNC(=O)C(=O)OC [DMOG, dimethyloxalylglycine]
- Effect on proliferation of bone marrow cells ([1]; 333 μM DMOG alone, 1 nM and 100 nM Dex): little if any effect
- Enhancement of proliferation by DMOG above the effect of Dex ([1]; 1 nM Dex): 2.1 fold
- Enhancement of proliferation by DMOG above the effect of Dex ([1]; 10 nM Dex (so in the source)): 2.4 fold
- Erythroblasts formed relative to cultures with Dex alone [2]: ~10 times
- Increase of proliferation of sorted CFU-E cells (CFU-E cells): do not significantly increase proliferation
- Relative increase in CFU-E output per BFU-E (BFU-E cells [3]; [6]): 2.1 fold
- Total colony numbers from 1,000 "BFU-E" cells: CFU-E 1 cluster (BFU-E cells [3]; day 0 (before culture)): 30 (±11)
- Total colony numbers from 1,000 "BFU-E" cells: large BFU-E >20 clusters (BFU-E cells [3]; day 0 (before culture)): 423 (±31)
- Total colony numbers from 1,000 "BFU-E" cells: small BFU-E 5-20 clusters (BFU-E cells [3]; day 0 (before culture)): 262 (±64)
- Total colony numbers from 1,000 "BFU-E" cells: CFU-E 1 cluster (BFU-E cells [3]; day 1): 637 (±227)
- Total colony numbers from 1,000 "BFU-E" cells: large BFU-E >20 clusters (BFU-E cells [3]; day 1): 428 (±72)
- Total colony numbers from 1,000 "BFU-E" cells: small BFU-E 5-20 clusters (BFU-E cells [3]; day 1): 1,284 (±683)
- Total colony numbers from 1,000 "BFU-E" cells: CFU-E 1 cluster (BFU-E cells [3]; day 2): 6,991 (±1,226)
- Total colony numbers from 1,000 "BFU-E" cells: large BFU-E >20 clusters (BFU-E cells [3]; day 2): 217 (±33)
- Total colony numbers from 1,000 "BFU-E" cells: small BFU-E 5-20 clusters (BFU-E cells [3]; day 2): 3,232 (±1,416)
- Total colony numbers from 1,000 "BFU-E" cells: CFU-E 1 cluster (BFU-E cells [3]; day 3): 23,685 (±5,919)
- Total colony numbers from 1,000 "BFU-E" cells: large BFU-E >20 clusters (BFU-E cells [3]; day 3): 156 (±69)
- Total colony numbers from 1,000 "BFU-E" cells: small BFU-E 5-20 clusters (BFU-E cells [3]; day 3): 4,399 (±2,039)
- Total colony numbers from 1,000 "BFU-E" cells: CFU-E 1 cluster (BFU-E cells [3]; day 4): 27,530 (±13,756)
- Total colony numbers from 1,000 "BFU-E" cells: CFU-E 1 cluster (BFU-E cells [3]; day 5): 26,730 (±9,557)
- Total colony numbers from 1,000 "BFU-E" cells: large BFU-E >20 clusters (BFU-E cells [3]; day 5): 0
- Total colony numbers from 1,000 "BFU-E" cells: small BFU-E 5-20 clusters (BFU-E cells [3]; day 5): 1,000 (±365)
- Total colony numbers from 1,000 "BFU-E" cells: CFU-E 1 cluster (BFU-E cells [3]; day 6): 9,598 (±8,627)
- BFU-Es per plated BFU-E (BFU-E cells [3]; [7]): 4.8
- CFU-Es per plated BFU-E (BFU-E cells [3]; [7]): 24
- CFU-E colonies (BFU-E cells [4]): 21 (±11) colonies per 1000 plated cells
- CFU-G/M/Meg colonies (BFU-E cells [4]): 5 (±6) colonies per 1000 plated cells
- GEMM colonies (BFU-E cells [4]): 0 colonies per 1000 plated cells
- large BFU-E colonies (BFU-E cells [4]): 164 (±23) colonies per 1000 plated cells
- small BFU-E colonies (BFU-E cells [4]): 243 (±30) colonies per 1000 plated cells
- Relative increase in total erythroblast output per BFU-E (BFU-E cells [5]; [6]): 2.5 fold
- Enhancement of BFU-E proliferation by DMOG (BFU-E cells [5]; 333 μM DMOG with 10 nM Dex): 10 fold
- Increase by DMOG of BFU-E proliferation in the presence of Dex (BFU-E cells [5]; 333 μM DMOG with 100 nM Dex versus Dex alone): 7.3 fold
- Increase of total number of cells after the first three days (BFU-E cells [5]; CD24 and CD71 10% low BFU-E cells, 100 nM Dex and/or 333 μM DMOG): remained constant
- Total cell expansion from 1000 "BFU-E" cells, liquid culture (BFU-E cells [5]; CD24 and CD71 10% low BFU-E cells, SFELE, 100 nM Dex and/or 333 μM DMOG, day 1): 4,200
- Total cell expansion from 1000 "BFU-E" cells, liquid culture (BFU-E cells [5]; CD24 and CD71 10% low BFU-E cells, SFELE, 100 nM Dex and/or 333 μM DMOG, day 2): 26,000
- Total cell expansion from 1000 "BFU-E" cells, liquid culture (BFU-E cells [5]; CD24 and CD71 10% low BFU-E cells, SFELE, 100 nM Dex and/or 333 μM DMOG, day 3): 130,000
- Total cell expansion from 1000 "BFU-E" cells, liquid culture (BFU-E cells [5]; CD24 and CD71 10% low BFU-E cells, SFELE, 100 nM Dex and/or 333 μM DMOG, day 4): 430,000
- Total cell expansion from 1000 "BFU-E" cells, liquid culture (BFU-E cells [5]; CD24 and CD71 10% low BFU-E cells, SFELE, 100 nM Dex and/or 333 μM DMOG, day 5): 820,000
- Total cell expansion from 1000 "BFU-E" cells, liquid culture (BFU-E cells [5]; CD24 and CD71 10% low BFU-E cells, SFELE, 100 nM Dex and/or 333 μM DMOG, day 6): 890,000
- Total cell expansion from 1000 "BFU-E" cells, liquid culture (BFU-E cells [5]; CD24 and CD71 10% low BFU-E cells, SFELE, 100 nM Dex and/or 333 μM DMOG, day 7): 1,200,000
- Total cell expansion from 1000 "BFU-E" cells, liquid culture (BFU-E cells [5]; CD24 and CD71 10% low BFU-E cells, SFELE, 100 nM Dex and/or 333 μM DMOG, day 8): 1,200,000
- Increase of proliferation of sorted BFU-E cells (BFU-E cells [5]; CD71 and CD24a 10% low cells, SFELE, 100 nM Dex and/or 333 μM DMOG, versus no additions): 2 fold

SMILES: O=C(O)C(=O)N[C@H](Cc1ccccc1)C(=O)O [N-oxalyl-d-phenylalanine]
- Inhibition of a HIF prolyl hydroxylase (HIF prolyl hydroxylase): not a HIF prolyl hydroxylase
- Inhibition of FIH (FIH): inhibit the FIH
